Results on five compounds are retold here after patent publication US5739300A, “Antiadhesive piperidine-and pyrrolidinecarboxylic acids” (Hoechst Aktiengesellschaft, priority 1995, dated 1998).

Experiment [1] has as its system open rabbit heart perfused with leukocytes. Nature of the experiment: Reperfusion model: adhesion of neutrophils in ischemia/reperfusion on the open rabbit heart (Langendorff). The protocol: Reperfusion model for investigation of the effects of the adhesion of neutrophils in the course of ischemia/reperfusion on the open rabbit heart
The hearts are perfused at constant pressure according to the Langendorff technique with nutrient solution and also with/without leukocytes or active compound. Ischemia is then produced by tying off the left coronary artery (30 min). After reperfusion (30 min), the leukocyte accumulation is histologically assessed. In the course of the experiment, potentials and arrhythmias are additionally measured on 256 electrodes (total time of experiment about 90 min).

The next experiment addresses T1, E-selectin (Homo sapiens, UniProt P16581).
T1 construct: genetically engineered soluble fusion proteins from the extracytoplasmic domain of E- or P-selectin in each case; made in house; host or cells: COS-7 cells (ATCC), transiently transfected; culture supernatant captured on anti-human IgG
Nature of the experiment: HL60 cell adhesion assay on recombinant, soluble E-selectin-IgG1 fusion protein. The format is cell-based. The following applies: read-out: IC 50 values for E-selectin. The text has this: (§1) Primary assays for the investigation of the action of the compounds of the present invention for cell adhesion to recombinant, soluble selectin fusion proteins.
(§2) In order to test the activity of the compounds according to the invention on the interaction between the E- and P-selectins (old nomenclature ELAM-1 and GMP-140) with their ligands, an assay is used which is only specific for one of these interactions in each case. The ligands are supplied in their natural form as surface structures on promyelocytic HL60 cells. As HL60 cells have ligands and adhesion molecules of very different specificity, the desired specificity of the assay can only be produced by means of the binding component. The binding components used were genetically engineered soluble fusion proteins from the extracytoplasmic domain of E- or P-selectin in each case and the constant region of a human immunoglobulin of the subclass IgG1.
Preparation of L-selectin-IgG1
To prepare soluble L-selectin-IgG1 fusion protein, the genetic construct "ELAM-Rg" published by Walz et al., 1990 was used.
For expression, the plasmid DNA was transfected in COS-7 cells (ATCC) by means of DEAE-dextran (Molecular biological methods: see Ausubel, F. M., Brent, R., Kingston, R. E., Moore, D. D., Seidman, J. G., Struhl, K. and Smith, J. A. 1990. Current Protocols in Molecular Biology, John Wiley, New York). Seven days after transfection, the culture supernatant is recovered, freed from cells and cell fragments by centrifugation and transferred to 25 mM HEPES pH 7.0, 0.3 mM PMSF, 0.02% sodium azide and kept at +4° C. (Walz, G., Aruffo, A., Kolanus, W., Bevilacqua, M. and Seed, B. 1990. Recognition by ELAM-1 of the sialyl-Lex determinant on myeloid and tumor cells. Science 250, 1132-1135.)
(§3) Carrying out the HL60 cell adhesion assays on recombinant, soluble adhesion molecules
(§4) 1. 96-well microtiter test plates (Nunc Maxisorb) are incubated at room temperature for 2 hours with 100 μl of a goat anti-human IgG antibody (Sigma) diluted (1+100) in 50 mM tris pH 9.5. After removing the antibody solution, washing is carried out once with PBS.
(§5) 2. 150 μl of the blocking buffer are left in the wells for 1 hour at room temperature. The composition of the blocking buffer is: 0.1% gelatin, 1% BSA, 5% calf serum, 0.2 mM PMSF, 0.02% sodium azide. After removing the blocking buffer, washing is carried out once with PBS.
(§6) 3. 100 μl each of cell culture supernatant of correspondingly transfected and expressing COS cells are pipetted into the wells, Incubation is carried out for 2 hours at room temperature. After removing the cell culture supernatant, washing is carried out once with PBS.
4. 20 μl of binding buffer are added to the wells. […]

The test system of another experiment is P-selectin. Nature of the experiment: HL60 cell adhesion assay on recombinant, soluble P-selectin-IgG1 fusion protein. The format is cell-based. The following applies: read-out: IC 50 values for P-selectin.
Description: as §1, §2
Preparation of P-selectin-IgG1
To prepare the soluble P-selectin-lgG1 fusion protein, the genetic construct "CD62Rg" published by Aruffo et al., 1991 is used. The further procedure corresponds to the preparation of L-selectin-IgG1 presented under A1.
Aruffo, A., Kolanus, W., Walz, G., Fredman, P. and Seed, B. 1991. CD62/-P-Selectin recognition of myeloid and tumor cell sulfatides. Cell 67, 35-44.
as §3, §4, §5, §6
4. 20 μl of binding buffer are added to the wells. The binding buffer has the composition: 50 mM HEPES, pH 7.5; 100 mM NaCl; 1 mg/ml BSA; 2 mM MgCl2; 1 mM CaCl2; 3 mM MnCl2; 0.02% sodium azide; 0.2 mM PMSF. To do this, 5 μl of the test substance are pipetted, mixed by swirling the plate and incubated at room temperature for 10 min.
5. 50 ml of a HL60 cell culture having 200,000 cells/ml are centrifuged at 350 g for 4 min. The pellet is resuspended in 10 ml of RPMI 1640 and the cells are centrifuged again. […]

For experiment [2], the system named is adhesion of leukocytes to the endothelium. Nature of the experiment: Leukocyte adhesion in vivo, intravital microscopy in the rat (mesenterium, LPS-induced). Conditions: SPRD (m) rat, LPS 15 mg/kg, vs untreated control. The text has this: Leukocyte adhesion--Testing of the activity of the compounds according to the invention in vivo (intravital microscopy in the rat):
The induced adhesion of leukocytes is quantified in the mesenterium of the rat using an intravital microscopic investigation technique (Atherton A. and Born G. V. R., Quantitative investigations of the adhesiveness of circulating polymorphonuclear leukocytes to blood vessel walls. J. Physiol. 222, 447-474, 1972; Seiffge, D. Methoden zur Untersuchung der Rezeptor-vermittelten Interaktion zwischen Leukozyten und Endothelzellen im Entzundungsgeschehen [Methods for investigation of the receptor-mediated interaction between leukocytes and endothelial cells in inflammatory phenomena], in: Ersatz- und Erganzungsmethoden zu Tierversuchen in der biomedizinischen Forschung [Substitution and replacement methods for animal experiments in biomedical research], Schoffl, H. et al., (ed.) Springer, 1995 (in print)). Lasting anesthesia is initiated under inhalation ether anesthesia by intramuscular injection of urethane ([…] of body weight). After exposing vessels (femoral vein for the injection of substances and carotid artery for blood pressure measurement), catheters are tied into them. After this, the corresponding transparent tissue (mesenterium) is exposed by the standard methods known in the literature and arranged on the microscope stage and coated with warm liquid paraffin at 37° C. (Menger, M. D. and Lehr, H, A., Scope and perspectives of intravital microscopy-bridge over from in vitro to in vivo, Immunology Today 14, 519-522, 1993). […] The increased adhesion of leukocytes to the endothelium caused by this means is quantified by direct vital microscopy or with the aid of fluorescent dyes. All measuring operations are recorded by video camera and stored on a video recorder. Over a period of 60 minutes, the number of rolling leukocytes (i.e. all visibly rolling leukocytes which are slower than the flowing erythrocytes) and the number of leukocytes adhering to the endothelium (residence period longer than 5 seconds) is determined every 10 minutes. […]

T1 sequence (P16581 with tags, fused parts or gaps): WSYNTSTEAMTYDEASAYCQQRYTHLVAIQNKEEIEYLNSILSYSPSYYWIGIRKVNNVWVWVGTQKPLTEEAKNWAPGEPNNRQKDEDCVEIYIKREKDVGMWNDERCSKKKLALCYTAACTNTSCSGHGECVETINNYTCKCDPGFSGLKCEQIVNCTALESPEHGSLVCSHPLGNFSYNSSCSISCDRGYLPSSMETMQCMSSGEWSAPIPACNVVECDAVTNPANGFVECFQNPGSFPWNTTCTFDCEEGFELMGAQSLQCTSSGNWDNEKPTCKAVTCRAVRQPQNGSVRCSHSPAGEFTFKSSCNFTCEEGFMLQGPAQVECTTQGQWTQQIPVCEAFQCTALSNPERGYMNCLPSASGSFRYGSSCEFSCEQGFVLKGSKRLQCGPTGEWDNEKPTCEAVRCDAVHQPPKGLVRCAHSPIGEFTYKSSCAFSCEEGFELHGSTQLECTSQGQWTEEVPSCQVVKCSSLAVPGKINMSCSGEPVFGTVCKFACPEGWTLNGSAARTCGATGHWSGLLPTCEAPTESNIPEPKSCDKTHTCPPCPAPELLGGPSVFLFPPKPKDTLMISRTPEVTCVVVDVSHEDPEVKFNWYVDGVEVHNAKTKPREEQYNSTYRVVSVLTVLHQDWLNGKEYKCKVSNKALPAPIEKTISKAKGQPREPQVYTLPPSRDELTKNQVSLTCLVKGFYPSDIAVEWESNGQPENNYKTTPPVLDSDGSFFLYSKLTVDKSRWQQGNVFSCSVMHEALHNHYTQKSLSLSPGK

With “chondroitin sulfate [reference compound]”, in experiment [1] (hearts perfused with leukocytes and active compound, vs untreated hearts), the “leukocyte accumulation and arrhythmias” value was “reduced leukocyte accumulation and arrhythmias”.

Consider `C[C@@H]1O[C@@H](O[C@@H]2CCCC[C@H]2OC(=O)N2CCC(C(=O)O)CC2)[C@@H](O)[C@H](O)[C@@H]1O` [Compound 3a, N-Carbonyl-4-carboxypiperidyl-(1→2)-[(α-L-fucopyranosyl)-(1→1)]-(1R, 2R)-trans-1,2-cyclohexanediol], for which the IC50 on E-selectin and with P-selectin was over 2 mM each time. The “inhibition (of leukocyte adhesion)” value in experiment [2] (1 mg/kg i.v.) was found to be 64%; in experiment [2] (5 mg/kg i.v.), 69%; in experiment [2] (10 mg/kg i.v.), 81%. In addition, the reduction of arrhythmias result in experiment [1] (in the range from about 1 μM) is “considerable reduction of arrhythmias”.

Take `C[C@@H]1O[C@@H](O[C@@H]2CCCC[C@H]2OC(=O)N2CCCC(CC(C(=O)O)C(=O)O)C2)[C@@H](O)[C@H](O)[C@@H]1O` (stereo partly drawn) [Compound 4b, [N-Carbonyl-(1,1-dicarboxyl-ethyl)-(2→3)-piperidyl]-(1→2)-[(α-L-fuco-pyranosyl)-(1→1)]-(1R, 2R)-trans-1,2-cyclohexanediol]: the IC50 on E-selectin and in the experiment on P-selectin was over 2 mM throughout.

As to `C[C@@H]1O[C@@H](O[C@@H]2CCCC[C@H]2OC(=O)N2CCC(C(=O)O)(C(=O)O)CC2)[C@@H](O)[C@H](O)[C@@H]1O` [Compound 3e, N-Carbonyl-4,4-dicarboxypiperidyl-(1→2)-[(α-L-fucopyranosyl)-(1→1)]-(1R, 2R)-trans-1,2-cyclohexanediol], the IC50 at E-selectin was determined as 1.6 mM; in the experiment with P-selectin, 7.5 mM.

For the compound `C[C@@H]1O[C@@H](O[C@@H]2CCC[C@H]2OC(=O)N2CCC(C(=O)O)CC2)[C@@H](O)[C@H](O)[C@@H]1O` [Compound 1e, N-Carbonyl-4-carboxypiperidyl-(1→2)-[(α-L-fucopyranosyl)-(1→1)]-(1R, 2R)-trans-1,2-cyclopentanediol], the IC50 was 3.7 mM on E-selectin and 2.85 mM with P-selectin.
